Patent US12643886B2 (Ontario Institute for Cancer Research (OICR), priority 2021, dated 2026)

Tests used:
Type in all cases: biochemical
NUAK2 (h) = biological target: T1, NUAK2 (h) (Homo sapiens, UniProt Q9H093); assay: NUAK2 enzymatic assay (radiometric, Eurofins); conditions: full-length recombinant enzyme
T1 construct: This assay was done radiometrically using full-length, recombinant enzyme; purchased Eurofins
T1 sequence (Q9H093 1-628): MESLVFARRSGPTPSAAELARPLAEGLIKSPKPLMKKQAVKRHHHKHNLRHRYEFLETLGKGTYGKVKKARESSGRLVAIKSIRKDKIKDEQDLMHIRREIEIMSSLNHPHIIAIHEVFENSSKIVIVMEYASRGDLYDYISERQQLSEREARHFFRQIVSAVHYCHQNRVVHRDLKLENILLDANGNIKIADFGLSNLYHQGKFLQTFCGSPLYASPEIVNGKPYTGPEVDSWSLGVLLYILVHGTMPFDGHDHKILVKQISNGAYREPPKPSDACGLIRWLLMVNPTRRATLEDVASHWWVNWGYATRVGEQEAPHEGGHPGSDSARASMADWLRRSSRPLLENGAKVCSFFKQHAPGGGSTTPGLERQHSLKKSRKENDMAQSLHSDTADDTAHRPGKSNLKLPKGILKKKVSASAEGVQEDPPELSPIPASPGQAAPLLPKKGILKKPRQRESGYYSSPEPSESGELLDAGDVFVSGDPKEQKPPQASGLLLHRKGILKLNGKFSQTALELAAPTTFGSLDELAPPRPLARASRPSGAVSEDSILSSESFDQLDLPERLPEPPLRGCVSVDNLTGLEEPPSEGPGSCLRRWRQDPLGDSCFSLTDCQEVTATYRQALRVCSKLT
Description: (§1) To identify small molecule NUAK inhibitors, a biochemical NUAK2 enzymatic assay were outsourced to Eurofins. This assay was done radiometrically using full-length, recombinant enzyme. NUAK2 (h) was incubated with 8 mM MOPS pH 7.0, 0.2 mM EDTA, 300 μM […], 10 mM magnesium acetate and […] (specific activity and concentration as required). The reaction was initiated by the addition of the Mg/ATP mix. After incubation for 40 minutes at room temperature, the reaction was stopped by the addition of phosphoric acid to a concentration of 0.5%. 10 μL of the reaction was then spotted onto a P30 filtermat and washed four times for 4 minutes in 0.425% phosphoric acid and once in methanol prior to drying and scintillation counting. Compounds were routinely counter-screened against Aurora A and NUAK1. The results are shown in Table 1 where IC50's are reported in the following ranges: A: 0.1-10 nM; B: 11-100 nM; C: 101-1000 nM; D: >1000 nM for the compounds of Formula (I)

NUAK1 = biological target: T2, NUAK1 (Homo sapiens, UniProt O60285); assay: Counter-screen against NUAK1
T2 sequence (O60285 1-661): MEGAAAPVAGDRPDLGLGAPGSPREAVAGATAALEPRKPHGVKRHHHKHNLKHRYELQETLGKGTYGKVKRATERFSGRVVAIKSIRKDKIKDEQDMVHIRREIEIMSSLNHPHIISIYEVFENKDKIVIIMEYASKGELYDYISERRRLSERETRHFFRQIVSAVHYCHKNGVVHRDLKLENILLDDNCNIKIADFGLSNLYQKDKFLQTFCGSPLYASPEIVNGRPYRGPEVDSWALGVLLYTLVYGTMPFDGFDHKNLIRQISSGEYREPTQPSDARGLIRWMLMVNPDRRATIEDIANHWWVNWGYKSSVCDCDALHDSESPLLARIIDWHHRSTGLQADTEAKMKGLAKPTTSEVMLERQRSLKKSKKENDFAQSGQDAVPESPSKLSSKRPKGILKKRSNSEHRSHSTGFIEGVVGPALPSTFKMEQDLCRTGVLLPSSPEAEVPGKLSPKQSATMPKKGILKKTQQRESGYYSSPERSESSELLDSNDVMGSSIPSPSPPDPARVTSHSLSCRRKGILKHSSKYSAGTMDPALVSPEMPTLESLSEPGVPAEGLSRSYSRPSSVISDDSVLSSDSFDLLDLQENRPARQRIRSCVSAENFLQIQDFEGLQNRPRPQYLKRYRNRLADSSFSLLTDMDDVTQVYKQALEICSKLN
Description: as §1

Aurora A = biological target: T3, Aurora A (Homo sapiens, UniProt O14965); assay: Counter-screen against Aurora A; conditions: read-out: AUR-A (IC50)
T3 sequence (O14965 1-403): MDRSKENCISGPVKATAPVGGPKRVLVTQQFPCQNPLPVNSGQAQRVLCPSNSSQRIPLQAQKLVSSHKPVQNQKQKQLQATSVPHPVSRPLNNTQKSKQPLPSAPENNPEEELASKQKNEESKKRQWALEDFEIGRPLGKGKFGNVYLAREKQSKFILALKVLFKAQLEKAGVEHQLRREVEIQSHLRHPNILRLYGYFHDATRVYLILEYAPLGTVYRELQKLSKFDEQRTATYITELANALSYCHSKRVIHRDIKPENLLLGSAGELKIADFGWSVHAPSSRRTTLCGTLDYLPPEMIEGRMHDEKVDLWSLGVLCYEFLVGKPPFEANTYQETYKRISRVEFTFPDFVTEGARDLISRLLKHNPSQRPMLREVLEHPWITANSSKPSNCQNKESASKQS
Description: as §1

SMILES | IC50 (NUAK2 (h)) | IC50 (NUAK1) | IC50 (Aurora A)
COc1c(Nc2ncc(C(F)(F)F)c(Nc3cccc4c3C(=O)NC4)n2)ccc(N2CCCN(C)CC2)c1F [Compound I-38, 7-((2-((3-fluoro-2-methoxy-4-(4-methyl-1,4-diazepan-1-yl)phenyl)amino)-5-(trifluoromethyl)pyrimidin-4-yl)amino)isoindolin-1-one] | 0.1 to 10 nM | 11 to 100 nM | 101 to 1000 nM
COc1c(Nc2ncc(C(F)(F)F)c(Nc3cccc4c3C(=O)NC4)n2)ccc(N2CCC(N3CCNCC3)CC2)c1F [Compound I-39, 7-((2-((3-fluoro-2-methoxy-4-(4-(piperazin-1-yl)piperidin-1-yl)phenyl)amino)-5-(trifluoromethyl)pyrimidin-4-yl)amino)isoindolin-1-one] | 11 to 100 nM | 11 to 100 nM | 11 to 100 nM
O=C1NCc2cccc(Nc3nc(Nc4ccc(N5CCC(N6CCNCC6)CC5)cc4OC(F)F)ncc3C(F)(F)F)c21 [Compound I-40, 7-((2-((2-(difluoromethoxy)-4-(4-(piperazin-1-yl)piperidin-1-yl)phenyl)amino)-5-(trifluoromethyl)pyrimidin-4-yl)amino)isoindolin-1-one] | 0.1 to 10 nM | 11 to 100 nM | 101 to 1000 nM
CN1CCN(c2ccc(Nc3ncc(Cl)c(Nc4cccc5c4C(=O)NC5)n3)c(OC(F)(F)F)c2)CC1 [Compound I-41, 7-((5-chloro-2-((4-(4-methylpiperazin-1-yl)-2-(trifluoromethoxy)phenyl)amino)pyrimidin-4-yl)amino)isoindolin-1-one] | 11 to 100 nM | 101 to 1000 nM | 101 to 1000 nM
O=C1NCc2cccc(Nc3nc(Nc4ccc(N5CCNCC5)cc4OC(F)F)ncc3F)c21 [Compound I-42, 7-((2-((2-(difluoromethoxy)-4-(piperazin-1-yl)phenyl)amino)-5-fluoropyrimidin-4-yl)amino)isoindolin-1-one] | 11 to 100 nM | 101 to 1000 nM | 101 to 1000 nM
COc1cc2c(cc1Nc1ncc(F)c(Nc3cccc4c3C(=O)NC4)n1)CCNC2 [Compound I-43, 7-((5-fluoro-2-((7-methoxy-1,2,3,4-tetrahydroisoquinolin-6-yl)amino)pyrimidin-4-yl)amino)isoindolin-1-one] | 11 to 100 nM | 101 to 1000 nM | 101 to 1000 nM
COc1cc2c(cc1Nc1ncc(C(F)(F)F)c(Nc3cccc4c3C(=O)NC4)n1)CCNCC2 [Compound I-44, 7-((2-((8-methoxy-2,3,4,5-tetrahydro-1H-benzo[d]azepin-7-yl)amino)-5-(trifluoromethyl)pyrimidin-4-yl)amino)isoindolin-1-one] | 0.1 to 10 nM | 101 to 1000 nM | 101 to 1000 nM
COc1c(Nc2ncc(C(F)(F)F)c(Nc3cccc4c3C(=O)NC4)n2)ccc(N2CCC(N3CCN(C)CC3)CC2)c1F [Compound I-45, 7-((2-((3-fluoro-2-methoxy-4-(4-(4-methylpiperazin-1-yl)piperidin-1-yl)phenyl)amino)-5-(trifluoromethyl)pyrimidin-4-yl)amino)isoindolin-1-one] | 11 to 100 nM | 11 to 100 nM | 11 to 100 nM
COc1cc2c(cc1Nc1ncc(C(F)(F)F)c(Nc3cccc4c3C(=O)NC4)n1)CNCC21CC1 [Compound I-46, 7-((2-((6′-methoxy-2′,3′-dihydro-1′H-spiro[cyclopropane-1,4′-isoquinolin]-7′-yl)amino)-5-(trifluoromethyl)pyrimidin-4-yl)amino)isoindolin-1-one] | 0.1 to 10 nM | 11 to 100 nM | > 1000 nM
COc1cc2c(cc1Nc1ncc(OC)c(Nc3cccc4c3C(=O)NC4)n1)CCNC2 [Compound I-47, 7-((5-methoxy-2-((7-methoxy-1,2,3,4-tetrahydroisoquinolin-6-yl)amino)pyrimidin-4-yl)amino)isoindolin-1-one] | 11 to 100 nM | 101 to 1000 nM | > 1000 nM
C[C@@H]1CN(C2CCN(c3ccc(Nc4ncc(C(F)(F)F)c(Nc5cccc6c5C(=O)NC6)n4)c(OC(F)F)c3)CC2)C[C@H](C)N1C [Compound I-48, 7-((2-((2-(difluoromethoxy)-4-(4-((3S,5R)-3,4,5-trimethylpiperazin-1-yl)piperidin-1-yl)phenyl)amino)-5-(trifluoromethyl)pyrimidin-4-yl)amino)isoindolin-1-one] | 0.1 to 10 nM | 11 to 100 nM | 101 to 1000 nM
C[C@@H]1CN(c2ccc(Nc3ncc(C(F)(F)F)c(Nc4cccc5c4C(=O)NC5)n3)c(OC(F)F)c2)C[C@H](C)N1 [Compound I-49, 7-((2-((2-(difluoromethxoy)-4-((3S,5R)-3,5-dimethylpiperazin-1-yl)phenyl)amino)-5-(trifluoromethyl)pyrimidin-4-yl)amino)isoindolin-1-one] | 0.1 to 10 nM | 11 to 100 nM | > 1000 nM
C[C@H]1CN(c2ccc(Nc3ncc(C(F)(F)F)c(Nc4cccc5c4C(=O)NC5)n3)c(OC(F)F)c2)CCN1 [Compound I-50, (S)-7-((2-((2-(difluoromethoxy)-4-(3-methylpiperazin-1-yl)phenyl)amino)-5-(trifluoromethyl)pyrimidin-4-yl)amino)isoindolin-1-one] | 0.1 to 10 nM | 11 to 100 nM | > 1000 nM
CN1CCN(c2ccc(Nc3ncc(Cl)c(Nc4cccc5c4C(=O)NC5)n3)cc2)CC1 [Compound I-51, 7-((5-chloro-2-((4-(4-methylpiperazin-1-yl)phenyl)amino)pyrimidin-4-yl)amino)isoindolin-1-one] | 0.1 to 10 nM | 0.1 to 10 nM | 0.1 to 10 nM
O=C1NCc2cccc(Nc3nc(Nc4cc5c(cc4Cl)CNCC5)ncc3C(F)(F)F)c21 [Compound I-52, 7-((2-((7-chloro-1,2,3,4-tetrahydroisoquinolin-6-yl)amino)-5-(trifluoromethyl)pyrimidin-4-yl)amino)isoindolin-1-one] | 11 to 100 nM | 11 to 100 nM | 11 to 100 nM
CN1CCN(c2ccc(Nc3ncc(C(F)(F)F)c(Nc4cccc5c4C(=O)NC5)n3)c(OC(F)(F)F)c2)CC1 [Compound I-53, 7-((2-((4-(4-methylpiperazin-1-yl)-2-(trifluoromethoxy)phenyl)amino)-5-(trifluoromethyl)pyrimidin-4-yl)amino)isoindolin-1-one] | 11 to 100 nM | 101 to 1000 nM | > 1000 nM
O=C1NCc2cccc(Nc3nc(Nc4ccc(N5CCCNCC5)cc4OC(F)F)ncc3C(F)(F)F)c21 [Compound I-55, 7-((2-((4-(1,4-diazepan-1-yl)-2-(difluoromethoxy)phenyl)amino)-5-(trifluoromethyl)pyrimidin-4-yl)amino)isoindolin-1-one] | 0.1 to 10 nM | 11 to 100 nM | > 1000 nM
